Measurements reported in publication PMC4379526 (2015).

System: OTA aptabeacon (DNA, aptamer) CGCGCTGGATCGGGTGTGGGTGGCGTAAAGGGAGCATCGGACACAGCGCG
Assay: molecular beacon fluorescence, real-time PCR cycler
Conditions: 120 mM NaCl, 5 mM KCl, 20 mM CaCl2, 10 mM Tris pH 8.5, 30 °C

SMILES | binding (2 µM toxin, peak area 67–88% lower than OTA) | Kd (1 µM aptabeacon, calculated from Kd = [A][L]/[AL]) [nM]
C[C@@H]1Cc2ccc(C(=O)N[C@@H](Cc3ccccc3)C(=O)O)c(O)c2C(=O)O1 | weak | 
C[C@@H]1Cc2c(Cl)cc(C(=O)N[C@@H](Cc3ccccc3)C(=O)O)c(O)c2C(=O)O1 |  | 800
